From PMC8637440, “Structural Modifications Yield Novel Insights Into the Intriguing Pharmacodynamic Potential of Anti-inflammatory Nitro-Fatty Acids” (Frontiers in Pharmacology, 2021) come the findings set out here.

For this experiment, the system named is sEH. In words: Cell-based sEH activity assay in COS-7 cells. The arrangement: species or system Afrikan green monkey. To be noted: 10 µM, 24 h. The method, then: sEH activity in the cells was analyzed using a Soluble Epoxide Hydrolase Cell-Based Assay Kit (Cayman Chemical, #600090). […] Following incubation, the cells were processed according to the manufacturer’s instructions. The assay uses an internal signal subtraction to minimize potential errors generated by sEH-independent product formation due esterase mediated hydrolysis. The fluorescence intensity of the samples was measured in a plate reader at excitation/emission wavelengths of 330/465 nm sEH activity was calculated by the 6-methoxy-2-naphthaldehyde standard curve.
Suppl. Figure 2: Effects of NFA on sEH activity in COS-7 cells. sEH activity in COS-7 cells treated with NFA (10 µM) differ in (A) chain length and (B) Michael acceptor position and […]
Cells were lysed, and hydrolase activity was measured by Epoxy Fluor
7 lysis presented as mean + SD, n=2-3. […] OA, […]
oleic acid, she, soluble epoxide hydrolase.
(1 picture or pasted object on this page, not shown here)

Molecules are shown by their SMILES.

Take `CCCCCCCC/C=C\CCCCCCCC(=O)O` [OA, oleic acid, reference compound]: the “inhibition of sEH activity in COS-7 cells” value is “strong suppressive effect”.
